Assay results: patent US20220288051A1, “METHODS FOR TREATING CANCER USING SERIAL ADMINISTRATION OF E3 UBIQUITIN LIGASE DEGRADERS” (Dana-Farber Cancer Institute, Inc., priority 2019, published 2022)
Entries after “also recorded” stand apart in the source; their conditions may differ.

What was measured:
[1] = test system: MM.1S-Cas9+ cells; test: Genome-scale CRISPR/Cas9 gene editing (LOF) resistance screens; type: cell-based, human; conditions: for sgRNA enrichment in resistant cells, long-term screen: long-term treatment, NGS of sgRNAs; for sgRNA enrichment, extended degronimid treatment: Thal-SNS-032-resistant MM.1S cells, additional 2 weeks
Method: MM.1S cells transduced with lentiviral construct for SpCas9 were kindly provided from Quinlan Sievers (Ebert Lab, BWH/DFCI). MM.1S cells were also transduced with lentiviral construct for dCas9-VP64 (purchased from Addgene).
ii. Lentiviral transductions with sgRNA libraries: For the screen with the GECKOv2 sgRNA library, tumor cell transductions were performed in batches of 8×10^7 cells per sub-library for each replicate. Cells were incubated for 16 hrs in cell medium containing polybrene (2 μg/mL; Santa Cruz Biotechnology), 10 mM HEPES (pH 7.4) (Sigma-Aldrich) and viral prep (4 mL) diluted to achieve an MOI of 0.4. After the end of the incubation with the viral preps, cells were washed and incubated for an additional day. Transduced cells were cultured at an initial density of 1×10^6 cells/mL and were treated with puromycin (1 μg/mL) for up to 14 days immediately after transduction. After puromycin selection, MM.1S-Cas9^+ cells transduced with each GeCKOv2 sublibrary were plated at 60×10^6 cells per flask (T175, 100 mL) to enable coverage of ˜1000× and were sub-cultured at four to five-day intervals to prevent confluence. At each passage, cells were harvested, washed with PBS (Corning, N.Y.), pelleted (5000 rpm, 5 min, 4° C.) and frozen as cell pellets (−80° C.) for next generation sequencing, and also replated at 60×10^6 cells to maintain 1000× coverage.
For the genome-scale screens with the Brunello sgRNA library, tumor cell transductions were performed in batches of 5×10^7 cells per library for six replicates. Cells were incubated (18 h) in cell medium containing polybrene (5 μg/mL; Santa Cruz Biotechnology), 10 mM HEPES (pH 7.4) (Sigma-Aldrich) and viral prep (30 mL) diluted 1:1. Transduced cells were cultured at an initial density of 1×10^6 cells/mL and were treated with puromycin (1 μg/mL) for up to 5 days additional two days from transduction. After stable transduction, pooled MM.1S cells were plated at 40×10^6 cells per flask (T175, 100 mL) to enable coverage of 500× and were sub-cultured at three- to four day intervals to prevent confluence. At each passage, cells were harvested, washed with PBS (Corning), pelleted (5000 rpm, 5 min, 4° C.) and frozen as cell pellets (−80° C.) for next generation sequencing, and also replated at 40×10^6 cells (˜500× coverage).
iii. […] Following treatments, all cells were serially cultured without drug and allowed to regrow for as long as required to enable reseeding (60×10^6 cells per flask, 100 mL) and retreatment with individual drugs while maintaining ˜1000× coverage throughout. Concomitant with retreatment, remaining cells were frozen (−80° C.; 20% FBS/DMSO) for later analysis or assessed for drug resistance/sensitivity using CTG assays. Between treatments, and in order to maintain the health of cultures, dead cells were periodically removed using Ficoll centrifugation (1,500 rpm for 10-20 min). For all CRISPR drug treatment experiments, aliquots of MM.1S-Cas9+ cells transduced with the GeCKO(Sanjana et al., 2014; Shalem et al., 2014) or Brunello (Doench et al., 2016) sgRNA libraries were frozen immediately prior to experimentation to determine the baseline distribution of sgRNAs in the cell population.
For “long-term” treatment screens with Thal-SNS-032-, ARV-771- and MZ-1-resistant cells, we continuously treated MM.1S-Cas9+ cells (40×10^6, —500× coverage) transduced with the Brunello sgRNA library (4 weeks post-puromycin selection) with either each compound's (IC20) or vehicle control. Cells were serially passaged every 3-4 days to prevent confluence, each time replating at ˜500× coverage (100 mL) at the same time replenishing each compound or vehicle. Drug treatments were paused if cell numbers fell below 10×10^6 per flask, allowing cells to recover and regrow, and treatments were resumed at a lower concentration when cell numbers reached 40×10^6. At each passage, cells were assayed for drug sensitivity/resistance using CTG. […]

[2] = test system: MM.1S Cas9+ cells; test: Dose-response assay of cells with individual sgRNA knock-outs, CTG; type: cell-based, human
Method: Non-targeting control sgRNAs and COPS7B sgRNAs were from GeCKOv2. Four sgRNAs were generated per each gene, except from COPS7B, for which 6 sgRNAs were available (Table S2). All sgRNAs were synthesized by CustomArray Inc (Bothell, Wash.). Cloning was performed according to the protocol published by Zhang et al. (media.addgene.org/cms/filer_public/4f/ab/4fabc269-56e2-4ba5-92bd-09dc89c1e862/zhang_lenticrisprv2_and_lentiguide_oligo_cloning_protocol_1.pdf) using a pHKO9 vector. Briefly, to clone the sgRNA guide sequence, plasmids were digested with BsmBI (New England Biolabs, Ipswich, Mass.) at 55° C. for 1 hour. Oligonucleotides for each sgRNA guide sequence were annealed and phosphorylated using T4 Ligation Buffer and T4 polynucleotide kinase (New England Biolabs) at 37° C. for 30 minutes and then annealed by heating to 95° C. for 5 minutes and cooling to 25° C. at 1.5° C./minute. Using T4 ligation buffer and T4 ligase (New England Biolabs), annealed oligos were ligated into gel purified vectors (Qiagen) at 65° C. for 10 minutes. 2.5 ug of the ligation product were transformed in 30 uL E. coli electrocompetent cells (Lucigen E.cloni 10 G ELITE PLUS, Invitrogen). Subsequently, 500 uL of transformed cells were plated on LB Agar-AmpR (ThermoFisher Scientific) and incubated overnight at 37° C. Three colonies per plate were then picked and inoculated in a mini-prep culture (Qiagen). The product was then digested with BsmBI and XhoI (New England Biolabs) at 37° C. for 1 h and compared to the uncut control on 1% agarose gel. One out of three colonies (10 uL) was then precultured in 3 mL LB Broth-AmpR and shaken at 37° C. for 6 h. Afterwards it was transferred to a 250 mL LB Broth-AmpR flask and incubated overnight at 37° C. Each culture was then inoculated into a maxiprep culture (Qiagen).
Also, CRBN, VHL, TCEBJ, TCEB2, UBE2R2 and FBXW2 sgRNA are selected from Brunello library and cloned using pLVX-hyg-sgRNA1 Vector system (Takara Bio USA, CA) according to the manufacturer's manual. b(takarabio.com/assets/documents/User %20Manual/Lenti-X_CRISPR-Cas9_System_User_Manual_121316.pdf)
ii. Lentiviral transductions with constructs for individual sgRNAs: 500×10^3 to 1×10^6 MM.1S Cas9 cells were plated in 50 uL of complete RPMI1640 medium per well in a 24-well plate, and additional 100 uL of complete RPMI1640 medium were added to cover the well completely. Cells were incubated in cell medium containing polybrene (5 to 8 μg/mL; Santa Cruz Biotechnology), and viral prep. 24 hours after addition of viral preps, media were changed and, after another 48 h, puromycin selection (1 to 2 ug/ml per well) was started. After 7 days of puromycin selection, transduced MM.1S Cas9+ cells were collected and expanded in T75 flasks.
iii. […] In the case of Thal-SNS-032 or ARV771, cells are plated 384-well plate and treated each concentration described at figure and viability assays were performed at 72 hrs.

Cc1ncsc1-c1ccc([C@H](C)NC(=O)[C@@H]2C[C@@H](O)CN2C(=O)[C@@H](NC(=O)COCCCOCCNC(=O)C[C@@H]2N=C(c3ccc(Cl)cc3)c3c(sc(C)c3C)-n3c(C)nnc32)C(C)(C)C)cc1 [ARV-771]
sgRNA enrichment in resistant cells, long-term screen [1]: enrichment of sgRNAs for CUL2, VHL itself
activity against cells with sgRNAs against CRBN ([2]; MM.1S cells): no significant changes in ARV771 activity
response of cells with sgRNAs against COPS7B or COPS8 ([2]; compared to parental MM.1S cells): decreased response

Cc1sc2c(c1C)C(c1ccc(Cl)cc1)=N[C@@H](CC(=O)NCCCCCCCCNC(=O)COc1cccc3c1C(=O)N(C1CCC(=O)NC1=O)C3=O)c1nnc(C)n1-2 (stereo partly drawn) [dBET6]
sgRNA enrichment, extended degronimid treatment [1]: CRBN is the only gene which exhibits enrichment of its sgRNAs; also recorded: further enrichment of MM cells containing sgRNA against CRBN
sgRNA enrichment in resistant cells, long-term screen [1]: significant enrichment of sgRNAs targeting CRBN itself, as well as other components or regulators of the cullin-RING ligase (CRL) complex
response to dBET6 after individual sgRNAs ([2]; sgRNAs for COPS7B, COPS8 or CRBN): decreases the response of MM.1S cells to dBET6

CC(C)(C)c1cnc(CSc2cnc(NC(=O)C3CCN(CC(=O)NCCOCCOCCOCCNc4cccc5c4C(=O)N(C4CCC(=O)NC4=O)C5=O)CC3)s2)o1 (stereo not drawn) [Thal-SNS-032]
sgRNA enrichment, extended degronimid treatment [1]: CRBN is the only gene which exhibits enrichment of its sgRNAs; also recorded: further enrichment of MM cells containing sgRNA against CRBN
sgRNA enrichment in resistant cells, long-term screen [1]: pronounced enrichment of sgRNAs for CRBN itself, and COP9 signalosome complex genes
Thal-SNS-032 responsiveness after individual sgRNAs ([2]; sgRNAs for COPS7B, COPS2, DDB1 or COPS8): decrease the Thal-SNS-032 responsiveness
